Patent publication US20030187056A1, “Live cell procedures to identify to identify compounds modulating intracellular distribution of phosphodiesterase( pde) enzymes” (priority 2000, published 2003)
Where two headings read alike, the source gives them in different places.

Key:
[1] = biological target: T1, HSPDE4A4-EGFP (Homo sapiens, UniProt P27815); assay: Spot formation in CHO cells transfected with HSPDE4A4-EGFP; format: cell-based; conditions: for cells with spots: clonal
T1 construct: expressed in transfected cells
T1 sequence (P27815 whole entry): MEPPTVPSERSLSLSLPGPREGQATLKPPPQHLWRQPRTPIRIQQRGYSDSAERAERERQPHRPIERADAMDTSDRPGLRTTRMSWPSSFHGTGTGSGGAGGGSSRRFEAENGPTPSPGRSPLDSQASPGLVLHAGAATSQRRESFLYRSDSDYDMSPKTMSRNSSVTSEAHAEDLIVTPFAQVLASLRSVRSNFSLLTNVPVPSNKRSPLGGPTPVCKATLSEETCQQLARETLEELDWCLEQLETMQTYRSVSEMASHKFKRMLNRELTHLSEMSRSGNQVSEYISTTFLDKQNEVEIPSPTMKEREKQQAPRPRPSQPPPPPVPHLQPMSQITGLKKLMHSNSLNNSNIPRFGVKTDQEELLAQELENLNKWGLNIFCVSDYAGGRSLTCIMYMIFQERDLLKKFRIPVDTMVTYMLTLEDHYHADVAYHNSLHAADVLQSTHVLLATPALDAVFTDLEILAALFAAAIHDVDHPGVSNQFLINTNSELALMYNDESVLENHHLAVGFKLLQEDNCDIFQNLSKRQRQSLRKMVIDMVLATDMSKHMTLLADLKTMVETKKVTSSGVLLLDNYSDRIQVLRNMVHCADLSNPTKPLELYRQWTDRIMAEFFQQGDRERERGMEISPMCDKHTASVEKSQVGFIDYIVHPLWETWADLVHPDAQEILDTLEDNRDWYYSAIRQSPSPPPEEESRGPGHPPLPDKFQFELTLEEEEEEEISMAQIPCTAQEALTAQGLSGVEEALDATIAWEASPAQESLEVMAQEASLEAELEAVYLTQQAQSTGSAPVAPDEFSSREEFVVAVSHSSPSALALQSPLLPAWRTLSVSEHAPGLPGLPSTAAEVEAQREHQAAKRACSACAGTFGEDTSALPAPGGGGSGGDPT

[2] = biological target: T2, HSPDE4A1-EGFP (Homo sapiens, UniProt P27815); assay: Spot dispersal in CHO cells transfected with HSPDE4A1-EGFP; format: cell-based
T2 construct: the ca. 1.95 kb coding region of HSPDE4A1 (GenBank Acc.no. U97584) is amplified; expressed in transfected cells
T2 sequence (P27815 1-647 isoform P27815-4): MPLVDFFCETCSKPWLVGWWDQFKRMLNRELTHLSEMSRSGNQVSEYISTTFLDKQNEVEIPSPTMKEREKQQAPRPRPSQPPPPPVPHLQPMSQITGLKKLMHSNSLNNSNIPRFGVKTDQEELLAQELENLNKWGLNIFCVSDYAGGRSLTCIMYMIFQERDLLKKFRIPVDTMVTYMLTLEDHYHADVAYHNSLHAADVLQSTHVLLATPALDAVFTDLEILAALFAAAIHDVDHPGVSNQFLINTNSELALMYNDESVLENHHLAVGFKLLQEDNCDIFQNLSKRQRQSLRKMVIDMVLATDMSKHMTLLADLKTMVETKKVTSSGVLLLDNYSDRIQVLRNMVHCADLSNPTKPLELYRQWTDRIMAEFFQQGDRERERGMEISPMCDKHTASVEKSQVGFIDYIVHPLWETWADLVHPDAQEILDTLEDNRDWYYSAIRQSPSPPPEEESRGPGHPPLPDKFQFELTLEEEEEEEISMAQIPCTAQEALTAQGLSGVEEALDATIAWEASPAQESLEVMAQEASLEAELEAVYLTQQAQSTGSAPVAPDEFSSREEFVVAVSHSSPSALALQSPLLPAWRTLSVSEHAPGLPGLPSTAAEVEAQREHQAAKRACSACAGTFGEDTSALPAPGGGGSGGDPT
Description: (§1) […] The cells are then fixed with 4% formalin buffer (pH7) for 1 hour, washed with PBS and stained with 1 μM Hoechst 33258 in PBS for 10 minutes at 25° C., then washed twice in PBS. Automated images are collected and analysed for the number of spots per cell as described in Example 2.
as §1

[3] = biological target: T2, HSPDE4A1-EGFP; assay: Competitive assay: reversal of Rolipram-induced spot dispersal, HSPDE4A1-EGFP CHO cells; format: cell-based; conditions: yes/no
[4] = test system: PDE4; conditions: cited from earlier work
[5] = test system: T3, PDE4; conditions: Saldou et al., 1998; read-out: IC50 against PDE4; cited from earlier work
T3 construct: other: Saldou et al., 1998; Such an enzyme preparation may be obtained from cells transfected with and expressing the PDE4 enzyme chosen

## O=c1c2cccnc2n(-c2cccc([N+](=O)[O-])c2)c(=O)n1Cc1ccncc1 [RS25344]
[1]; 0.03 μM RS25344, 24.5 hours
  cells with spots: about 40%
[1]; 0.03 μM RS25344, 24.5 hours, listed as RS 25344
  cells with spots: approximately 40%
[1]; 1 μM RS25344, 24.5 hours
  cells with spots: more than 95%
[1]; clonal CHO, 23.5 hours, 4-parameter Hill fit, read-out: EC50 spot formation (spots per cell)
  EC50: 17 nM
[1]; yes/no
  Formation of PDE4A4 spots: yes
[2]; Rolipram 2 micromolar 2 hours, others over the ranges tested
  dispersal of PDE4A1 spots (in words): reduce PDE4A1 spot numbers
[2]; clonal CHO, 23.5 hours, estimated
  EC50: 5 nM
[2]; yes/no
  Removal of PDE4A1 spots: yes
[3]
  Reversal of Rolipram-induced removal of PDE4A1 spots: no
[4]; literature values quoted in Example 5 (Saldou 1998; Ahluwalia 1982; Rubin 1991), read-out: IC50 against PDE4
  IC50: 0.28 nM
[4]; yes/no
  Inhibition of PDE4 catalytic activity: yes
[5]
  IC50: 0.28 nM
